System: P2R (P2-purinoceptor) in human osteosarcoma HOS cells
Assay: Inhibition of ATP-induced P2R calcium signals (Fura-2 fluorescence) in HOS cells
Type: cell-based
Conditions: erinacine S 5, 10 and 15 μg/ml (FIG. 7B)
Protocol: Cells were filled with a fluorescent dye-based calcium indicator, “Fura-2, AM cell permeant” (ThermoFisher Scientific, Waltham, Mass., U.S.A.), and the variation of the fluorescence level at an emission wavelength of 505 nm was determined at two excitation wavelengths of 340 nm and 380 nm using a fluorescence spectrometer (SPEX® 1681, Spec Industries, Inc., New Jersey, U.S.A.). During the experiment, ATP was added to cells to stimulate the P2R expression, and the variation of the fluorescence level was observed. Finally, 1 wt. % digitonin was added to enable the cells to become transparent, and the maximum fluorescence ratio (Rmax) was obtained at a concentration of 2 mM Ca^2+. Ethyleneglycol bis(2-aminoethylether)tetraacetic acid (EGTA) then was added to chelate with the calcium ions to obtain a minimum fluorescence ratio (Rmin). The dissociation coefficient (Kd) of fura-2 to Ca^2+ is 225 nM. The intracellular calcium-ion concentration was calculated using formulas (Grynkiewicz et al., J. Biol. Chem. 1985. 260(6):3440-3450). […]
Comparing the P2R-correlated calcium signals in three cell lines stimulated with ATP, the variation of the calcium-ion concentration in human osteosarcoma HOS cells was the most significant, and thus the influence of the agent on P2R can clearly be determined. […]

CC(C)C1=C2C3CCC4=C(O)C(=O)C5(O)COC6OC(C4C65O)C3(C)CCC2(C)CC1 (stereo not shown) [erinacine S]
inhibition effect on the variation of the intracellular calcium-ion concentration induced by ATP: more significant in a dosage-dependent manner
